The values below come from patent US10266523B2, “Crystaline forms of N-[6-(cis-2,6-dimethylmorpholine-4-yl)pyridine-3-yl]-2-Methyl-4′-(trifluoromethoxy) [1,1′-biphenyl]-3-Methanamide monophosphate, and process of preparation thereof” (CRYSTAL PHARMATECH CO., LTD., priority 2015, dated 2019).

The structures appear in SMILES notation. Entries after “also recorded” stand apart in the source; their conditions may differ. Where two headings read alike, the source gives them in different places.

A short description of series [1]: Solid-state storage stability, form change detected by XRPD. Particulars: 120 days. It is filed as physicochemical. The source says: The samples after storage were detected by XRPD.
Series [2] can be described thus: Stability of crystalline forms in water and simulated biological media (saturated solution, XRPD of solid). It is filed as physicochemical. Particulars: for Final form: SGF, listed as Crystalline Form A of monophosphate. On the procedure:
After being equilibrated for 1 hour, 4 hours and 24 hours, a small amount solid of each saturated solution was carried out for XRPD test, the testing result is shown in table 9, and the XRPD contrast diagram after 1 hour is shown in FIG. 9, wherein a is starting form of diphosphonate, b is monophosphate Form B of the present disclosure, c is the crystalline form of the diphosphonate after 1 hour in water, d is the crystalline form of the diphosphonate after 1 hour in SGF, e is the crystalline form of the diphosphonate after 1 hour in the FaSSIF, and f is the crystalline form of the diphosphonate after 1 hour in FeSSIF.

The conditions of series [3]: cited from earlier work.
Series [4] can be described thus: Hygroscopicity assessment by dynamic vapor sorption (DVS). Particulars: 25° C.; for Weight Gain at 80% Relative Humidity: DVS, 10 mg. It is filed as physicochemical. The procedure:
Dynamic Vapor Sorption (DVS) is measured via a SMS (Surface Measurement Systems) DVS Intrinsic, using 10 mg of crystalline form. Typical Parameters for DVS test are listed below: Temperature: 25° C. Gas and flow rate: N2, 200 mL/min dm/dt: 0.002%/min RH range: 0% RH to 95% RH Stable duration: 10 min Maximum equilibrate time: 180 min Humidity gradient: 10%(0% RH-90% RH), 5%(90% RH-95% RH), Hygroscopicity of 10 mg of monophosphate Form A of compound of formula (I) was tested using dynamic vapor sorption (DVS). About hygroscopicity characterization description and definition of hygroscopicity (Chinese Pharmacopoeia 2010 edition appendix XIXJ Drug hygroscopic test guidelines, test at 25° C.+/−1° C., 80% Relative Humidity) • deliquescent: sufficient water is absorbed to form a liquid. • very hygroscopic: increase in mass is equal to or greater than 15%. • hygroscopic: increase in mass is less than 15% and equal to or greater than 2%. • slightly hygroscopic: increase in mass is less than 2% and equal to or greater than 0.2%. • no or almost no hygroscopic: increase in mass is less than 0.2%.

Series [5] can be described thus: Particle size distribution test (Microtrac S3500 laser particle size analyzer, wet process). It is filed as physicochemical. Particulars: for MV (average particle size calculated by volume): dispersion medium Isopar G; for D10 / D50 / D90: volume distribution, Isopar G. On the procedure:
The particle size distribution test in the present disclosure is acquired by the S3500 laser particle size analyzer of Microtrac. Microtrac S3500 is equipped with the Sample Delivery Controller. The test is carried out by wet process, and the dispersion medium is Isopar G The parameters are as follow: [table] 10-30 mg sample was dispersed with 10 mL Isopar G (containing 0.2% of lecithin). The sample is added into the SDC sample injection system when fully mixed. Start the experiment when the sample amount indication chart reaches a proper position. The result of particle size distribution test is shown in table 13, the particle size distribution diagram of the Form A is shown in FIG. 10, and the particle size distribution diagram of the Form B of monophosphate is shown in FIG. 11.

Setting [6] is: listed as Crystalline Form A of monophosphate.
The mark [7] stands for this setting: listed as Crystalline Form B of monophosphate.

Consider `Cc1c(C(=O)Nc2ccc(N3C[C@@H](C)O[C@@H](C)C3)nc2)cccc1-c1ccc(OC(F)(F)F)cc1.O=P(O)(O)O.O=P(O)(O)O` [Diphosphonate in CN102159570, reference compound], for which the “Form Change” value in series [1] (5° C.) is “Diphosphonate”; in series [1] (25° C./60% RH) it was “Diphosphonate”; in series [1] (40° C./75% RH, listed as diphosphonate in CN102159570) it was “partly changed into Form B”. In addition, in series [2] (four media, equilibrated for 1 hour), the “form conversion in media” value was “convert into Form B of monophosphate”. The “XRPD of the crystalline form after storage” value in series [3] (50° C./75% RH, 2 weeks) is recorded as “slightly changed”; in series [3] (80° C./75% RH, two weeks), “changed”.

On to `Cc1c(C(=O)Nc2ccc(N3CC(C)OC(C)C3)nc2)cccc1-c1ccc(OC(F)(F)F)cc1` (stereo not drawn) [Form A, N-[6-(cis-2,6-dimethylmorpholine-4-yl)pyridine-3-yl]-2-methyl-4′-(trifluoromethoxy) [1,1′-biphenyl]-3-carboxamide monophosphate], for which the “hygroscopicity class (Chinese Pharmacopoeia 2010 definition)” value in series [4] (80% Relative Humidity) was “slightly hygroscopic (increase in mass is less than 2% and equal to or greater than 0.2%)”. The “Weight Gain at 80% Relative Humidity” value in series [4] and in series [4] (listed as monophosphate Form A) was 0.59% each time. The “Form Change” value in series [1] (5° C.) is “Form A”; in series [1] (25° C./60% RH) it was “Form A”; in series [1] (40° C./75% RH) it was “Form A and Form B”. In addition, the Final form result in series [2] (equilibrium time 1 h), in series [2] (equilibrium time 4 h) and in series [2] (equilibrium time 24 h) was “Changed” each time. Moreover, the “stability of crystalline form in media” value in series [2] (water, FaSSIF and FeSSIF, after 1, 4, and 24 hours) is given as “stable”. Besides, the “particle size homogeneity and dispersion” value in series [5] is “homogeneous particle size and good dispersion”. Also, the “MV (average particle size calculated by volume)” value in series [5] (setting [6]) is listed as 136.5 um. In series [5] (setting [6]), this compound had a D10 of 22.7 um. For the same compound, the D50 in series [5] (setting [6]) is listed as 100.2 um. The compound also came in with a D90 in series [5] (setting [6]) of 305.2 um.

On to `Cc1c(C(=O)Nc2ccc(N3CC(C)OC(C)C3)nc2)cccc1-c1ccc(OC(F)(F)F)cc1` (stereo not drawn) [Form B, N-[6-(cis-2,6-dimethylmorpholine-4-yl)pyridine-3-yl]-2-methyl-4′-(trifluoromethoxy) [1,1′-biphenyl]-3-carboxamide monophosphate], for which the “Form Change” value in series [1] (5° C.) is “Form B”. For the same compound, in series [1] (25° C./60% RH), the “Form Change” value is “Form B”. The “Form Change” value in series [1] (40° C./75% RH) is reported as “remains unchanged; also recorded: Form B”. Besides, the “stability of crystalline form in media” value in series [2] (all of the four kinds of media (water, SGF, FaSSIF, FeSSIF)) was “do not change”. The “particle size homogeneity and dispersion” value in series [5] is “homogeneous particle size and good dispersion”. Moreover, in series [5] (setting [7]), the “MV (average particle size calculated by volume)” value is on record as 55.4 um, the D10 turned out to be 8.8 um, the D50 came out at 37.5 um and the D90 was 124.2 um.
